Assay results reported in patent US20090099094A1, “Use of Somatostatin Agonists to Treat Medullary Thyroid Carcinoma” (priority 2007, published 2009).

Target: SSTR5 (Homo sapiens, UniProt P35346)
Experiment: SSTR receptor binding affinity (Ki), SSTR5
Settings: read-out: SSTR Specificity Ki SSTR5

Sequence of SSTR5 (P35346 whole entry): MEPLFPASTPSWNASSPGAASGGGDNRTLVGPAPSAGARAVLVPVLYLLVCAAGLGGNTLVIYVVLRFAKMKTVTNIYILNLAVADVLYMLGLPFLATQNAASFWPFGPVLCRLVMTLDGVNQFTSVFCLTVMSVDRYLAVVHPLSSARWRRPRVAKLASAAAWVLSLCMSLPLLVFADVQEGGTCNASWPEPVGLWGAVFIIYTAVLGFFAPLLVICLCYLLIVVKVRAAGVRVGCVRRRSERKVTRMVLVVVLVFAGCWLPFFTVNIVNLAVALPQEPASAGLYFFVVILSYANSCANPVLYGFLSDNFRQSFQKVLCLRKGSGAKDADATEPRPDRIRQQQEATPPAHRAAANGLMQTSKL

Which Ki does the source give for `CCCN1C[C@H](CSCC(=O)NCCCC[C@@H](NC(=O)CSC[C@@H]2C[C@@H]3c4cccc5[nH]cc(c45)C[C@H]3N(CCC)C2)C(=O)N[C@H]2CSSC[C@@H](C(=O)N[C@H](C(N)=O)[C@@H](C)O)NC(=O)[C@H](CC)NC(=O)[C@H](CCCCN)NC(=O)[C@@H](Cc3c[nH]c4ccccc34)NC(=O)[C@H](Cc3ccc(O)cc3)NC2=O)C[C@@H]2c3cccc4[nH]cc(c34)C[C@H]21` [Dop2-D-Lys(Dop2)-c[Cys-Tyr-D-Trp-Lys-Abu-Cys]-Thr-NH2] here?
The Ki was 41.5 nM.
